The data set is described as follows: Surface energy by inverse gas chromatography (IGC). The following applies: 35° C., powder. Type of data set: physicochemical. As to the method: Surface energy of the drug and the drug surfactant particles was measured by inverse gas chromatography. A silanised U-shaped column (3 mm internal diameter, 30 cm length) was packed with approximately 400 mg of the test powder and dried under nitrogen for 24 hours at 50° C. The powder bed was then allowed to settle for 24 hours at 35° C. (temperature used during the experiments) under nitrogen. The test probes used were: hexane, heptane, octane, chloroform, CCl4, benzene, acetone, tetrahydrofuran, ethyl acetate and diethyl ether. One ml of air containing a minute concentration of each gaseous probe was injected into the column and the retention time measured.

`CCC(=O)OCC(=O)[C@@]1(OC(=O)CC)[C@@H](C)C[C@H]2[C@@H]3CCC4=CC(=O)C=C[C@]4(C)[C@@]3(Cl)[C@@H](O)C[C@@]21C` [BDP, Beclomethasone dipropionate] came in with a γs^D (n = 3) of 52.3 mJ/m².

Salbutamol sulphate came in with a γs^D (n = 3) of 43.3 mJ/m².

Values taken from patent publication US7163672B2, “Pharmaceutical aerosol formulation” (AstraZeneca AB, priority 2000, dated 2007).
